This is an account of results in patent US20170107531A1, “ISOLATED NUCLEIC ACIDS AND QU[…] LOCI (QTL) FROM S. HA[…] METHODS OF USE THEREOF FOR […] BACTERIAL SPECK DISEASE IN TOMATO AND OTHER PLANTS” (Boyce Thompson Institute, priority 2015, published 2017).

Test [1] concerns reactive oxygen species (ROS) in LA2109. Nature of the test: Reactive oxygen species (ROS) elicitation by MAMP peptides, luminescence-based assay. It counts as cell-based, Solanum habrochaites accession LA2109. The settings on record: for PTI-eliciting activity of synthetic peptide: FIG. 2D, FIGS. 3C-E, also Cai et al., 2011; for ROS elicitation (relative light units): LA2109, FIG. 3C. How it is done:
FIG. 3A-FIG. 3E. […] (FIG. 3A) Bacterial speck disease on leaves of LA2109 four days after inoculation with Pst19 or Pst19ΔavrPtoB. (FIG. 3B) Bacterial populations of Pst19 and Pst19ΔavrPtoB in leaves of LA2109. Error bars indicate standard deviation. Testing the possible response of LA2109 to FlgII-28, effector HopAO1, and coronatine. […] ROS was measured as relative light units using a luminescence-based assay. […] Strain NY-T1 was included as a virulent control. All strains were inoculated at 2×10^5 CFU/mL. (FIG. 3E) Coronatine (1.25 nM) was syringe-infiltrated into leaves of LA2109 and Moneymaker (red arrows). Leaves of LA2109 were not observably more sensitive to this phytotoxin.

Test [2] has as its system Solyc02g072470 transcript abundance. The test is described as follows: Solyc02g072470 transcript abundance in leaves after MAMP treatment (qRT-PCR), RG-PtoS. The format is in vivo, tomato (Rio Grande RG-PtoS). How it is done: (§1) Two lateral leaflets on the second leaf of 3-week old tomato plants were syringe-infiltrated with 1 uM FlgII-28 ([…]) (SEQ ID NO. 1) (Cal, et al., 2011) or 10 uM Csp22 ([…]) (SEQ ID NO. 2) (Felix and Boller, 2003) and harvested 6 hrs later. Tissue samples were immediately frozen in liquid nitrogen and kept at −80° C. until use. Six-week-old plants were inoculated with 10^5 colony-forming units (CFU)/mL P. syringae pv. tomato T1 by vacuum infiltration for the visual monitoring of disease symptoms and 10^4 CFU/mL for the measurement of bacterial populations. For each replicate, three leaf discs were collected and combined; each experiment involved replicates from three independent plants.
(§2) Leaf tissue was ground in liquid nitrogen and total RNA was extracted with TRIzol reagent following the manufacturer's instructions (Life Technologies, cat. #15596-018). The concentration of total RNA was determined with a Nanodrop spectrophotometer (Thermo Scientific Co.). RNA (lug) was treated with TURBO DNA-free™ Kit (Life Technologies, cat. AM1907M) and tested for DNA contamination by amplifying SlCBL1 (Solyc12g015870) for 25 cycles; no PCR product was detected. The RNA was then used for reverse transcription PCR (RT-PCR). […] 1 μl and 0.4 μl of cDNA templates were used for RT-PCR and quantitative-RT-PCR (qRT-PCR), respectively. […]
For orientation: In qPCR the cycle at which signal appears reflects the starting amount.

For test [3] the test system is unchanged. Nature of the test: Solyc02g072470 transcript abundance in leaves after MAMP treatment (qRT-PCR), LA2109. The format is in vivo, Solanum habrochaites accession LA2109. How it is done:
as §1, §2

Test [4] concerns reactive oxygen species (ROS) in LA2109. Conditions: Veluchamy et al., 2014; cited from earlier work.
The mark [5] stands for this setting: 10 uM Csp22, 6 hours after treatment.
Setting [6] is: 1 uM FlgII-28, 6 hours after treatment, vs 10 mM MgCl2 mock.

As for “FlgII-28 from DC3000: synthetic peptide of the FlgII-28 region of Pst strain DC3000 flagellin (SEQ ID NO: 77) (QTMAIKNANDGMSLAQTAEGALQESTNILQRMRELAVQSRNDSNSATDREALNKEFTAMS; FlgII-28 region)”, in test [1], the “PTI-eliciting activity of synthetic peptide” value is recorded as “fully active” and the “ROS elicitation (relative light units)” value is “same level”.
As for “FlgII-28 from NY-T1: FlgII-28 region of NY-T1 flagellin, phenylalanine at position 16 instead of serine (SEQ ID NO: 76) (QTMAIKNANDGMSLAQTAEGALQESTNILQRMRELAVQFRNDSNSSTDRDALNKEFTAMS; FlgII-28 region)”, the “ROS elicitation (relative light units)” value in test [1] is “inactive”.
In the case of “FlgII-28 from T1: synthetic peptide of the FlgII-28 region of Pst strain T1 flagellin (SEQ ID NO: 75) (QTMAIKNANDGMSLAQTAEGALQESTNILQRMRELAVQSRNDSNSSTDRDALNKEFTAMS; FlgII-28 region)”, in test [1], the “PTI-eliciting activity of synthetic peptide” value is reported as “fully active” and the “ROS elicitation (relative light units)” value is listed as “same level”.
Consider AVGTVKWFNAEKGFGFITPDDG (Csp22), for which the “Effect on Solyc02g072470 transcript abundance” value in test [2] (setting [5]) is on record as “no effect”; in test [3] (setting [5]), “significantly induced”. In addition, the “ROS response to Csp22, LA2109 compared to RG-PtoS” value in test [4] is “higher ROS response”.
Consider ESTNILQRMRELAVQSRNDSNSATDREA (FlgII-28), for which the “Increase of Solyc02g072470 transcript abundance” value in test [2] (setting [6]) was determined as 4 fold; in test [3] (setting [6]), 1.5 fold.
